Experimental data taken from patent publication US11739385B2, “Discovery of a somatic mutation in MYD88 gene in lymphoplasmacytic lymphoma” (Dana-Farber Cancer Institute, Inc., priority 2011, dated 2023).
Read-outs that look alike come from different tables or passages of the source.

Legend:
[1] = tested on: MYD88 L265P expressing WM cells; assay: Apoptosis analysis by Annexin V and PI staining; assay type: cell-based; details: BCWM.1 and MWCL-1 WM cells which possess the MYD88 L265P mutation
Description: Western blot analysis was performed using total and phospho-specific antibodies in MYD88 L265P expressing WM cells, BCWM.1 and MCWL-1 following MYD88 knockdown by lentiviral transduction, and/or use of MYD88 or IRAK signal inhibitors. […] Annexin V/PI staining was used to assess cell survival, and synergism assessed with CalcuSyn software.

NF-κB signaling [2] = assay: NF-κB signaling in BCWM.1 and MWCL-1 WM cells; assay type: cell-based; details: BCWM.1 and MWCL-1 WM cells which possess the MYD88 L265P mutation
NF-κB signaling [3] = details: L265P expressing ABC DLBCL cell lines; cited from earlier work

O=C(Nc1nc2ccccc2n1CCN1CCOCC1)c1cccc([N+](=O)[O-])c1 [IRAK1/4 inhibitor, N-(2-Morpholinylethyl)-2-(3-nitrobenzoylamido)-benzimidazole]
apoptosis [1]: enhanced apoptosis | NF-κB signaling (NF-κB signaling [2]): loss of NF-κB signaling | NF-κB signaling (NF-κB signaling [3]): loss of NF-κB signaling
